Laboratory results taken from PubChem BioAssay AID2060612 (Molecular Pharmacology Branch, DTP, NCI, 2025).
Where “and” joins values, the source holds several entries; their conditions need not be identical. Identical values can stand only once.

Tested on: 565232-114-T-J1-PDC complex spheroid viability
Assay: Anticancer human tumor 565232-114-T-J1-PDC patient-derived bladder carcinoma cell line growth inhibition [CLK]
Conditions: for viability, T/C: stronger effect = lower value
Description: A high-throughput screen of multi-cell type tumor spheroids was designed to identify active combinations of […] and targeted small molecules. Complex spheroids include a stromal component modeled by human endothelial cells (HUVEC) and fibroblasts modeled by human mesenchymal stem cells (MSCs). The concentration ranges selected for each drug and investigational agent were based upon clinically achievable concentrations if the clinical Cmax of the agent was known.
Compounds. The drugs and investigational agents: cirtuvivint (SM08502; NSC835563), CC-671 (NSC850746), vemurafenib (NSC761431), tapotoclax (NSC804041), sotorasib (NSC818433), adagrasib (NSC831453), MRTX-1133 (NSC836407), BAY2416964 (NSC825713), copanlisib (NSC816437), inavolisib (NSC800729), abemaciclib (NSC768073), osimertinib (NSC779217), entinostat (NSC756642), eltanexor (KPT-8602, NSC794443), venetoclax (NSC766270), ceralasertib (NSC777638), bortezomib (NSC756655), olaparib (NSC753686), talazoparib (NSC767125), alisertib (NSC759677), peposertib (NSC802822), gemcitabine (NSC613327), 5-fluorouracil (NSC19893), SN-38 (NSC673596), oxaliplatin (NSC266046), paclitaxel (NSC125973), and doxorubicin (NSC123127), were obtained from the National Cancer Institute (NCI) Developmental Therapeutics Program Chemical Repository. The FDA-approved anticancer drug set is available from the Developmental Therapeutics Program at https://dtp.cancer.gov/organization/dscb/obtaining/available plates.htm. […] The stock solutions were prepared in dimethyl sulfoxide (DMSO, Sigma-Aldrich, St. Louis, MO, cat. D2650), except for the platinum complexes which were prepared in saline (Quality Biological, Gaithersburg, MD, cat. 114-055-101), at 800-fold the tested concentration and stored at -70 degrees C prior to their use. All drugs and investigational agents were tested over a range starting from a high concentration at or near the clinical Cmax and decreasing in half-log increments. If the clinical Cmax for an agent had not been determined, the highest concentration tested was 10 microM.
Cell Culture. All cells were maintained in an incubator at 37 degrees C and 5% CO2 with 95% humidity. The PDC lines were cultured according to standard operating procedures established by the NCI PDMR. Briefly, all PDCs were thawed and cultured in Matrigel-coated flasks prepared with a working solution of 1X Ham's F-12 nutrient mix, without supplementation (Invitrogen, Waltham, MA, cat. 11765054), 100 U/mL penicillin-streptomycin (Invitrogen, cat. 15140122), and 2.5% Matrigel (Corning Inc., Corning, NY, cat. 354248) for the first three passages. The 947758-054-R-J2-PDC line was cultured in 6B/Colon 1A media, which includes advanced DMEM/F-12 (Thermo Fisher Scientific, cat. 12634028), 10 mM HEPES (Thermo Fisher Scientific, cat. 15630080), 1X GlutaMAX supplement (Thermo Fisher Scientific, cat. 35050061), 0.1 mg/mL primocin (InvivoGen, cat. ant-pm-2), 10% defined fetal bovine serum, heat inactivated (HyClone Laboratories Inc., cat. SH30070.03HI), 1.25 mM N-Acetyl-L-cysteine (Sigma-Aldrich, cat. A9165), 10 mM nicotinamide (Sigma-Aldrich, cat. N0636), 1X B-27 supplement (Thermo Fisher Scientific, cat. 17504044), 1X N-2 supplement (Thermo Fisher Scientific, cat. 17502048), and 10 microM Y-27632 dihydrochloride (Tocris Bioscience, cat. 1254). The 876862-298-R-J1-PDC was cultured in 6E media, which includes all 6B/Colon 1A media components plus 50% L-WRN conditioned media (ATCC, cat. CRL-3276), 50 ng/mL recombinant human EGF recombinant protein (hEGF; Thermo Fisher Scientific, cat. PHG0311), 10 ng/mL recombinant human fibroblast growth factor 10 (hGFG-10; PeproTech, cat. 100-26), 1 ng/mL recombinant human fibroblast growth factor 2 (hFGF-2; PeproTech, cat. 100-18B), and 1 µM prostaglandin E2 (PGE2; Tocris, cat. 2296). The 227483-062-R1-J1-PDC line was cultured in Panc media, containing all 6E components except hFGF-2, with the addition of 500 nM SB-431542 (Selleckchem, cat. S1067) and 10 nM gastrin (Tocris, cat. 3006). […]

[1] = curve of first compound, second compound 0.0316 µM
[2] = curve of first compound, second compound 0.1 µM
[3] = curve of first compound, second compound 0.316 µM
[4] = curve of first compound, second compound 1 µM
[5] = curve of first compound, second compound 3.16 µM
[6] = curve of first compound, second compound 10 µM
[7] = second compound 0.0316 µM, first compound 0.0316 µM
[8] = second compound 0.0316 µM, first compound 0.1 µM
[9] = second compound 0.0316 µM, first compound 0.316 µM
[10] = second compound 0.0316 µM, first compound 1 µM
[11] = second compound 0.0316 µM, first compound 3.16 µM
[12] = second compound 0.0316 µM, first compound 10 µM
[13] = second compound 0.1 µM, first compound 0.0316 µM
[14] = second compound 0.1 µM, first compound 0.1 µM
[15] = second compound 0.1 µM, first compound 0.316 µM
[16] = second compound 0.1 µM, first compound 1 µM
[17] = second compound 0.1 µM, first compound 3.16 µM
[18] = second compound 0.1 µM, first compound 10 µM
[19] = second compound 0.316 µM, first compound 0.0316 µM
[20] = second compound 0.316 µM, first compound 0.1 µM
[21] = second compound 0.316 µM, first compound 0.316 µM
[22] = second compound 0.316 µM, first compound 1 µM
[23] = second compound 0.316 µM, first compound 3.16 µM
[24] = second compound 0.316 µM, first compound 10 µM
[25] = second compound 1 µM, first compound 0.0316 µM
[26] = second compound 1 µM, first compound 0.1 µM
[27] = second compound 1 µM, first compound 0.316 µM
[28] = second compound 1 µM, first compound 1 µM
[29] = second compound 1 µM, first compound 3.16 µM
[30] = second compound 1 µM, first compound 10 µM
[31] = second compound 3.16 µM, first compound 0.0316 µM
[32] = second compound 3.16 µM, first compound 0.1 µM
[33] = second compound 3.16 µM, first compound 0.316 µM
[34] = second compound 3.16 µM, first compound 1 µM
[35] = second compound 3.16 µM, first compound 3.16 µM
[36] = second compound 3.16 µM, first compound 10 µM
[37] = second compound 10 µM, first compound 0.0316 µM
[38] = second compound 10 µM, first compound 0.1 µM
[39] = second compound 10 µM, first compound 0.316 µM
[40] = second compound 10 µM, first compound 1 µM
[41] = second compound 10 µM, first compound 3.16 µM
[42] = second compound 10 µM, first compound 10 µM
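Also: spheroids exposed to compounds for 7 days before readout.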
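For viability, T/C in this document: 100% = DMSO vehicle wells with luminescence normalized to vehicle control.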

In the case of `CC1(C)CCC(CN2CCN(c3ccc(C(=O)NS(=O)(=O)c4ccc(NCC5CCOCC5)c([N+](=O)[O-])c4)c(Oc4cnc5[nH]ccc5c4)c3)CC2)=C(c2ccc(Cl)cc2)C1`, the viability, T/C (compound 0.0316 µM) is reported as 83.5% and 111%, the viability, T/C (compound 0.1 µM) is reported as 86.5% and 97.6% and the viability, T/C (compound 0.316 µM) is reported as 80.5% and 95.8%. For the same molecule, the viability, T/C (compound 1 µM) was 72.6% and 95.6%, the viability, T/C (compound 3.16 µM) was 78.2% and 100% and the viability, T/C (compound 10 µM) was 38.4% and 45.6%. The IC50 (curve of compound) was 7.08 µM and 9.11 µM.

`COc1ccc([C@@H](O)c2cc(-c3ncnc4cc(N5CCOCC5)ccc34)c(F)cc2Cl)nn1` + CNC(=O)c1ccc(Nc2nc(OC3CCCC3)c3c(-c4ccc5nc(C)oc5c4)c[nH]c3n2)c(OC)c1 showed an IC50 [1] of over 10 µM, an IC50 [2] of under 0.0316 µM and an IC50 [3] of under 0.0316 µM. The IC50 [4] was under 0.0316 µM, the IC50 [5] was under 0.0316 µM and the IC50 [6] was under 0.0316 µM. For the same molecule, the viability, T/C [7] was 87.3%, the viability, T/C [8] was 87.1% and the viability, T/C [9] was 98.5%. For the same molecule, the viability, T/C [10] was 113%, the viability, T/C [11] was 115% and the viability, T/C [12] was 88.6%. The viability, T/C [13] was 47%, the viability, T/C [14] was 41.6% and the viability, T/C [15] was 36.9%. For the same molecule, the viability, T/C [16] was 34.3%, the viability, T/C [17] was 34.6% and the viability, T/C [18] was 35.8%. For the same molecule, the viability, T/C [19] was 26.4%, the viability, T/C [20] was 29.9% and the viability, T/C [21] was 27.9%. For the same molecule, the viability, T/C [22] was 32%, the viability, T/C [23] was 24.5% and the viability, T/C [24] was 24.8%. It also gave a viability, T/C [25] of 23.8%, a viability, T/C [26] of 22.1% and a viability, T/C [27] of 19.9%. It also gave a viability, T/C [28] of 22.1%, a viability, T/C [29] of 23% and a viability, T/C [30] of 19.2%. For the same molecule, the viability, T/C [31] was 15.7%, the viability, T/C [32] was 19.6% and the viability, T/C [33] was 17.4%. The viability, T/C [34] was 14.5%, the viability, T/C [35] was 14.9% and the viability, T/C [36] was 13.6%. It also gave a viability, T/C [37] of 19%, a viability, T/C [38] of 17.1% and a viability, T/C [39] of 14.4%. The viability, T/C [40] was 15.9%, the viability, T/C [41] was 15.2% and the viability, T/C [42] was 15.8%.

`CC1(C)CCC(CN2CCN(c3ccc(C(=O)NS(=O)(=O)c4ccc(NCC5CCOCC5)c([N+](=O)[O-])c4)c(Oc4cnc5[nH]ccc5c4)c3)CC2)=C(c2ccc(Cl)cc2)C1` + CN1CCN(c2cc(C(=O)Nc3cc4cc(-c5cnn(C)c5)ccc4cn3)ccn2)CC1 showed an IC50 [1] of 9.1 µM, an IC50 [2] of 8.01 µM and an IC50 [3] of under 0.0316 µM. It also gave an IC50 [4] of under 0.0316 µM, an IC50 [5] of under 0.0316 µM and an IC50 [6] of under 0.0316 µM. For the same molecule, the viability, T/C [7] was 104%, the viability, T/C [8] was 89% and the viability, T/C [9] was 98.6%. The viability, T/C [10] was 95.9%, the viability, T/C [11] was 79.5% and the viability, T/C [12] was 47.4%. For the same molecule, the viability, T/C [13] was 88.2%, the viability, T/C [14] was 79.3% and the viability, T/C [15] was 95.1%. For the same molecule, the viability, T/C [16] was 119%, the viability, T/C [17] was 82.2% and the viability, T/C [18] was 42.3%. The viability, T/C [19] was 13.7%, the viability, T/C [20] was 18.3% and the viability, T/C [21] was 18.5%. It also gave a viability, T/C [22] of 17.6%, a viability, T/C [23] of 22.8% and a viability, T/C [24] of 11.4%. The viability, T/C [25] was 1.1%, the viability, T/C [26] was 0.27% and the viability, T/C [27] was 0.22%. For the same molecule, the viability, T/C [28] was 0.2%, the viability, T/C [29] was 0.21% and the viability, T/C [30] was 0.31%. It also gave a viability, T/C [31] of 0.35%, a viability, T/C [32] of 2.16% and a viability, T/C [33] of 1.93%. For the same molecule, the viability, T/C [34] was 0.23%, the viability, T/C [35] was 1.8% and the viability, T/C [36] was 1.49%. For the same molecule, the viability, T/C [37] was 0.16%, the viability, T/C [38] was 1.55% and the viability, T/C [39] was 1.55%. For the same molecule, the viability, T/C [40] was 0.15%, the viability, T/C [41] was 0.15% and the viability, T/C [42] was 0.8%.
